Data from patent publication US20150322033A1, “ANTIBACTERIAL AGENT” (priority 2012, published 2015).
Values after ≈ are worked out from the molar mass of the structure shown.

tested on: S. aureus Mu50; test: microbe, parasite or virus in culture; assay type: cell-based, Staphylococcus aureus; settings: Staphylococcus aureus, MU50, read-out: MIC (mg/L) Mu50, Example 1, Tables 1 to 10
Protocol: (§1) S. aureus Mu50 (refer to Hiramatsu, K., Hanaki H., et al., J. Antimicrob. Chemother., 1997, 40(1), 135-6) or S. aureus FDA209P (ATCC 6538P) was cultured overnight at 37° C. in 4 mL of TBS (Tryptical Soy Broth, produced by Becton Dickinson) with shaking. After completion of the culture, the cells were suspended in fresh TBS to prepare a cell suspension showing an absorbance of 0.3 at 578 nm. Then, the cell suspension was diluted 500 times with CAMHB mentioned above.
(§2) CAMHB containing each test compound at each of the aforementioned concentrations was added to each well of a 96-well plate in a volume of 50 μL/well, the aforementioned cell suspension diluted 500 time was added to the well in a volume of 50 μL/well, and stationary culture was carried out overnight at 37° C.
(§3) MIC values (mg/L) of the flavones and quinolones against the strains were measured in the same manner as that of the measurement of MIC of Example 1, except that CAMHB containing each of the aforementioned flavones and quinolones prepared in Example 2 was used instead of CAMHB containing each of the test compounds.
(§4) MIC values of the flavones and quinolone for the strains were measured in the same manners as those of Example 1, except that S. aureus Mu50 NR-1 was also used as Staphylococcus aureus in addition to S. aureus FDA209P and S. aureus Mu50, cell suspensions of the strains were prepared.
(§5) In the same manner as that of Example 1, MIC values of M-246, M-21, J-Q21, and J-Q12.1 for Staphylococcus aureus were measured. M-246 and M-21 were obtained as commercial products, and as J-Q21 and J-Q12.1, those synthesized in Examples 6 and 7 were used.

Compound	MIC
CC(=O)C1C(=O)c2ccccc2N(c2ccccc2)C1=O (stereo not drawn) [compound 56]	> 128 mg/L
O=C(O)[C@H]1O[C@@H](Oc2cc3oc(-c4ccccc4)cc(=O)c3c(O)c2O)[C@H](O)[C@@H](O)[C@@H]1O [compound 59]	128 mg/L (≈ 287 µM)
O=c1cc(-c2ccc(O[C@@H]3O[C@H](CO)[C@@H](O)[C@H](O)[C@H]3O)c(O)c2)oc2cc(O)cc(O)c12 [compound 64]	> 128 mg/L
O=c1cc(-c2ccc(O)cc2)oc2ccccc12 [compound 68, 2-(4-hydroxyphenyl)chromen-4-one]	128 mg/L (≈ 537 µM)
O=c1cc(-c2ccc(O)cc2)oc2cccc(O)c12 [compound 70]	128 mg/L (≈ 503 µM)
CCOC(=O)c1oc2cc(O)cc(O)c2c(=O)c1-c1ccc(OC)cc1 [compound 71]	128 mg/L (≈ 359 µM)
COc1ccc(-c2coc3cc(OC(C)=O)cc(OC(C)=O)c3c2=O)cc1 [compound 72]	> 128 mg/L
COc1ccc(-c2c(C)oc3cc(O)cc(O)c3c2=O)cc1OC [compound 73]	> 128 mg/L
COc1ccc(-c2coc3cc(OC)cc(O)c3c2=O)cc1 [compound 74]	> 128 mg/L
CCOc1ccc(-c2coc3cc(OCC)cc(OCC)c3c2=O)cc1 [compound 75]	> 128 mg/L
COc1ccc(-c2coc3cc(OC)cc(OC)c3c2=O)cc1 [compound 76]	> 128 mg/L
CC(=O)Oc1ccc(-c2coc3cc(OC(C)=O)cc(OC(C)=O)c3c2=O)cc1 [compound 82]	> 128 mg/L
Cc1oc2cc(O)cc(O)c2c(=O)c1-c1ccc2c(c1)OCCCO2 [compound 83]	128 mg/L (≈ 376 µM)
CCOC(=O)c1oc2cc(OC)cc(O)c2c(=O)c1-c1ccc(OC)cc1 [compound 91]	> 128 mg/L
COc1ccc(-c2c(C(=O)O)oc3cc(OC)cc(OC)c3c2=O)cc1 [compound 92]	> 128 mg/L
COc1cc(-c2coc3cc(O)c(OC)c(O)c3c2=O)cc(O)c1OC [compound 93]	128 mg/L (≈ 355 µM)
COc1ccc(-c2coc3cc(O)c(OC)c(O)c3c2=O)cc1 [compound 94]	128 mg/L (≈ 407 µM)
COc1cc(OC)c(-c2coc3cc(O)cc(O)c3c2=O)cc1OC [compound 98]	> 128 mg/L
COc1c(O)cc2occ(-c3ccc(O)cc3)c(=O)c2c1O [compound 100]	128 mg/L (≈ 426 µM)
O=c1c(-c2ccc(O)cc2O)coc2cc(O)cc(O)c12 [compound 101]	128 mg/L (≈ 447 µM)
O=C(O)COc1cc(O)c2c(=O)c(-c3ccc4c(c3)OCCO4)coc2c1 [compound 102]	128 mg/L (≈ 346 µM)
CC(=O)Oc1cc(OC(C)=O)c2c(=O)c(-c3ccc4c(c3)OCCO4)coc2c1 [compound 104]	64 mg/L (≈ 161 µM)
CC1(C)C=Cc2c(c3c(c4c2OCC(c2ccc(O)cc2)C4=O)OC(C)(C)C=C3)O1 (stereo not drawn) [compound 105]	128 mg/L (≈ 316 µM)
O=c1c(-c2ccc3c(c2)OCCCO3)coc2cc(O)cc(O)c12 [compound 107]	128 mg/L (≈ 392 µM)

tested on: S. aureus FDA209P (ATCC 6538P); test: microbe, parasite or virus in culture; assay type: cell-based, Staphylococcus aureus; settings: Staphylococcus aureus; Example 1, Tables 1 to 10; read-out: MIC (mg/L) FDA209P
Protocol: as §1, §2, §3, §4, §5

Compound	MIC
CC(=O)C1C(=O)c2ccccc2N(c2ccccc2)C1=O (stereo not drawn) [compound 56]	> 128 mg/L
O=C(O)[C@H]1O[C@@H](Oc2cc3oc(-c4ccccc4)cc(=O)c3c(O)c2O)[C@H](O)[C@@H](O)[C@@H]1O [compound 59]	128 mg/L (≈ 287 µM)
O=c1cc(-c2ccc(O[C@@H]3O[C@H](CO)[C@@H](O)[C@H](O)[C@H]3O)c(O)c2)oc2cc(O)cc(O)c12 [compound 64]	> 128 mg/L
O=c1cc(-c2ccc(O)cc2)oc2ccccc12 [compound 68, 2-(4-hydroxyphenyl)chromen-4-one]	128 mg/L (≈ 537 µM)
O=c1cc(-c2ccc(O)cc2)oc2cccc(O)c12 [compound 70]	128 mg/L (≈ 503 µM)
CCOC(=O)c1oc2cc(O)cc(O)c2c(=O)c1-c1ccc(OC)cc1 [compound 71]	128 mg/L (≈ 359 µM)
COc1ccc(-c2coc3cc(OC(C)=O)cc(OC(C)=O)c3c2=O)cc1 [compound 72]	> 128 mg/L
COc1ccc(-c2c(C)oc3cc(O)cc(O)c3c2=O)cc1OC [compound 73]	128 mg/L (≈ 390 µM)
COc1ccc(-c2coc3cc(OC)cc(O)c3c2=O)cc1 [compound 74]	> 128 mg/L
CCOc1ccc(-c2coc3cc(OCC)cc(OCC)c3c2=O)cc1 [compound 75]	> 128 mg/L
COc1ccc(-c2coc3cc(OC)cc(OC)c3c2=O)cc1 [compound 76]	> 128 mg/L
CC(=O)Oc1ccc(-c2coc3cc(OC(C)=O)cc(OC(C)=O)c3c2=O)cc1 [compound 82]	> 128 mg/L
Cc1oc2cc(O)cc(O)c2c(=O)c1-c1ccc2c(c1)OCCCO2 [compound 83]	128 mg/L (≈ 376 µM)
CCOC(=O)c1oc2cc(OC)cc(O)c2c(=O)c1-c1ccc(OC)cc1 [compound 91]	> 128 mg/L
COc1ccc(-c2c(C(=O)O)oc3cc(OC)cc(OC)c3c2=O)cc1 [compound 92]	> 128 mg/L
COc1cc(-c2coc3cc(O)c(OC)c(O)c3c2=O)cc(O)c1OC [compound 93]	128 mg/L (≈ 355 µM)
COc1ccc(-c2coc3cc(O)c(OC)c(O)c3c2=O)cc1 [compound 94]	128 mg/L (≈ 407 µM)
COc1cc(OC)c(-c2coc3cc(O)cc(O)c3c2=O)cc1OC [compound 98]	128 mg/L (≈ 372 µM)
COc1c(O)cc2occ(-c3ccc(O)cc3)c(=O)c2c1O [compound 100]	128 mg/L (≈ 426 µM)
O=c1c(-c2ccc(O)cc2O)coc2cc(O)cc(O)c12 [compound 101]	128 mg/L (≈ 447 µM)
O=C(O)COc1cc(O)c2c(=O)c(-c3ccc4c(c3)OCCO4)coc2c1 [compound 102]	128 mg/L (≈ 346 µM)
CC(=O)Oc1cc(OC(C)=O)c2c(=O)c(-c3ccc4c(c3)OCCO4)coc2c1 [compound 104]	128 mg/L (≈ 323 µM)
CC1(C)C=Cc2c(c3c(c4c2OCC(c2ccc(O)cc2)C4=O)OC(C)(C)C=C3)O1 (stereo not drawn) [compound 105]	128 mg/L (≈ 316 µM)
O=c1c(-c2ccc3c(c2)OCCCO3)coc2cc(O)cc(O)c12 [compound 107]	128 mg/L (≈ 392 µM)
